Experimental data from ChEMBL document CHEMBL1151308, “Acanthosterol sulfates A-J: ten new antifungal steroidal sulfates from a marine sponge Acanthodendrilla sp” (1998).
Calls of active or inactive are those of the source. The rule behind the calls is not given here.

Assays:
Saccharomyces cerevisiae [1] = test: Antifungal activity against Saccharomyces cerevisiae A364A at 0.1 mg/disk; type: functional
Saccharomyces cerevisiae [2] = test: Antifungal activity against Saccharomyces cerevisiae STX338-2C mutant at 0.1 mg/disk; type: functional
Saccharomyces cerevisiae [3] = test: Antifungal activity against Saccharomyces cerevisiae 14028g mutant at 0.1 mg/disk; type: functional
Saccharomyces cerevisiae [4] = test: Antifungal activity against Saccharomyces cerevisiae GT160-45c at 0.1 mg/disk; type: functional, organism-based
Saccharomyces cerevisiae [5] = test: Antifungal activity against Saccharomyces cerevisiae RAY-3Aa at 0.1 mg/disk; type: functional, organism-based

Row | Structure (SMILES) | inhibition zone (IZ) (Saccharomyces cerevisiae [1]) [mm] | inhibition zone (IZ) (Saccharomyces cerevisiae [2]) [mm] | inhibition zone (IZ) (Saccharomyces cerevisiae [3]) [mm] | Activity (Saccharomyces cerevisiae [4]) | Activity (Saccharomyces cerevisiae [5])
1 | CC(=O)O[C@@H]1C[C@]2(C)[C@H]3CC[C@]4(C)[C@@H]([C@H](C)[C@@H]5O[C@H]5[C@H](C)C(C)C)CC[C@H]4C3=CC[C@H]2[C@H](OS(=O)(=O)[O-])[C@H]1O.[Na+] [ACANTHOSTEROL SULFATE I] | 7 | 8 | 9 | inactive | inactive
2 | CC(=O)O[C@@H]1C[C@]2(C)[C@H]3CC[C@]4(C)[C@@H]([C@H](C)[C@@H]5O[C@H]5[C@@H](C)C(C)C)CC[C@H]4C3=CC[C@H]2[C@H](OS(=O)(=O)[O-])[C@H]1O.[Na+] [ACANTHOSTEROL SULFATE J] | 11 | 10 | 11 | inactive | inactive
